These results are taken from patent US6281356A, “Substituted pyrroles” (Hoffmann-La Roche Inc., priority 2000, dated 2001).

Where a name gives a salt, the structure may show the parent alone.

For the test, the system named is epithelial breast carcinoma cell line (MDAMB-435). Put plainly: Antiproliferative activity (growth inhibition, MTT), epithelial breast carcinoma cell line MDAMB-435. It counts as cell-based. Conditions: Homo sapiens, MDA-MB-435, 120 h, 5 days post drug addition, 0.1% DMSO, read-out: IC50 (growth inhibition of MDAMB-435 cells). As to the method:
The epithelial breast carcinoma cell line (MDAMB-435) was purchased from ATCC (American Type Cell Culture Collection) and was grown in culture medium as recommended by ATCC. For analysis of the effect of various compounds of formula I on the growth of these cells, the cells were plated at a concentration of 1500 cells/well in a 96 well tissue culture plate ("test plate"). The day after the cells were plated, the compounds to be analyzed were dissolved in 100% DMSO (dimethyl sulfoxide) to yield at 10 mM stock solution. Each compound was diluted in H2 O to 1 mM and was added to triplicate wells in the first row of a 96 well master plate containing medium to yield a final concentration of 40 μM. The compounds were then serially diluted in medium in the "master plate". The diluted compound(s) were then transferred to test plates containing cells. A row of vehicle "control cells" received DMSO. The final concentration of DMSO in each well was 0.1%. 5 days post drug addition, the plate was analyzed as described below.
MTT (3-(4-5 methyl thiazole-2-yl)-2,5-diphenyl tetrazolium bromide; thiazolyl blue) was added to each well to yield a final concentration of 1 mg/ml. The plate was then incubated at 37° C. for 21/2-3 hours. The MTT-containing medium was then removed and 50 μl of 100% ethanol was added to each well to dissolve the formazan. The absorbences were then read using an automated plate reader (Bio-tek microplate reader). IC50 s were calculated using the Reed and Munsch equation, see Am. J. Hygiene Vol. 27 pgs. 493-497,1938.
For orientation: IC50 means the concentration needed to halve the response being measured. For the compound `Cn1cc(C2=C(c3cn(C)c4cc([N+](=O)[O-])ccc34)C(=O)NC2=O)c2ccc(-n3ccnc3)cc21` [Example 8a, 3-(6-Imidazol-1-yl-1-methyl-1H-indol-3-yl)-4-(1-methyl-6-nitro-1H-indol-3-yl)-pyrrole-2,5-dione], the half-maximal inhibitory concentration (IC50) worked out at 0.03 µM.
As for `Cn1cc(C2=C(c3cn(C)c4cc(N5CCCC5)ccc34)C(=O)NC2=O)c2ccc(Br)cc21` [Example 14f, 3-(6-Bromo-1-methyl-1H-indol-3-yl)-4-(1-methyl-6-pyrrolidin-1-yl-1H-indol-3-yl)pyrrole-2,5-dione], the figure is 0.005 µM.
As for `Cn1cc(C2=C(c3cn(C)c4cc([N+](=O)[O-])ccc34)C(=O)NC2=O)c2ccc(-c3cccs3)cc21` [Example 4d, 3-(1-Methyl-6-nitro-1H-indol-3-yl)-4-(1-methyl-6-thiophen-2-yl-1H-indol-3yl)-pyrrole-2,5-dione], the figure is 0.02 µM; as for `Cn1cc(C2=C(c3cn(C)c4cc(N5CCOCC5)ccc34)C(=O)NC2=O)c2ccc(Cl)cc21` [Example 14c, 3-(6-Chloro-1-methyl-1H-indol-3-yl)-4-(1-methyl-6-morpholin-4-yl-1H-indol-3-yl)pyrrole-2,5-dione], 0.002 µM.
Take `Cn1ccnc1-c1ccc2c(C3=C(c4cn(C)c5cc([N+](=O)[O-])ccc45)C(=O)NC3=O)cn(C)c2c1` [Example 2c, 3-[1-Methyl-6-(1-methyl-1H-imidazol-2-yl)-1H-indol-3-yl]-4-(1-methyl-6-nitro-1H-indol-3-yl)pyrrole-2,5-dione]: the IC50 was 0.03 µM.
In the case of `Cn1nccc1-c1ccc2c(C3=C(c4cn(C)c5ccccc45)C(=O)NC3=O)cn(C)c2c1` [Example 2k, 3-(1-Methyl-1H-indol-3-yl)-4-[1-methyl-6-(2-methyl-2H-pyrazol-3-yl)-1H-indol-3-yl]pyrrole-2,5-dione], the IC50 came to 0.25 µM.
Take `Cn1cncc1-c1ccc2c(C3=C(c4cn(C)c5cc([N+](=O)[O-])ccc45)C(=O)NC3=O)cn(C)c2c1` [Example 1, 3-[1-Methyl-6-(3-methyl-3H-imidazol-4-yl)-1H-indol-3-yl]-4-(1-methyl-6-nitro-1H-indol-3-yl)-pyrrole-2,5-dione]: the IC50 is 0.005 µM.
As for `Cn1cc(C2=C(c3cn(C)c4cc(N5CCCC5)ccc34)C(=O)NC2=O)c2ccccc21` [Example 12j, 3-(1-Methyl-1H-indol-3-yl)-4-(1-methyl-6-pyrrolidin-1-yl-1H-indol-3-yl)pyrrole-2,5-dione], the figure is 0.06 µM; as for `COCc1ccc2c(C3=C(c4cn(C)c5cc(N6CCOCC6)ccc45)C(=O)NC3=O)cn(C)c2c1` [Example 16, 3-(6-methoxymethyl-1-methyl-1H-indol-3-yl)-4-(1-methyl-6-morpholin-4-yl-1H-indol-3-yl)pyrrole-2,5-dione], 1.18 µM; as for `Cn1nccc1-c1ccc2c(C3=C(c4cn(C)c5cc([N+](=O)[O-])ccc45)C(=O)NC3=O)cn(C)c2c1` [Example 2j, 3-[1-Methyl-6-(2-methyl-2H-pyrazol-3-yl)-1H-indol-3-yl]-4-(1-methyl-6-nitro-1H-indol-3-yl)pyrrole-2,5-dione], 0.02 µM.
As for `Cn1cc(C2=C(c3cn(C)c4cc(N5CCCC5)ccc34)C(=O)NC2=O)c2ccc(C#N)cc21` [Example 15, 1-Methyl-3-[4-(1-methyl-6-pyrrolidin-1-yl-1H-indol-3-yl)-2,5-dioxo-2,5dihydro-1H-pyrrole-3-yl]-1H-indole-6-carbonitrile], the figure is below 0.01 µM; as for `Cn1cc(C2=C(c3c[nH]c4cc(N5CCOCC5)ccc34)C(=O)NC2=O)c2ccc(F)cc21` [Example 12n, 3-(6-Fluoro-1-methyl-1H-indol-3-yl)-4-(6-morpholin-4-yl-1H-indol-3-yl)-pyrrole-2,5-dione], 0.012 µM; as for `Cn1cc(C2=C(c3cn(C)c4cc([N+](=O)[O-])ccc34)C(=O)NC2=O)c2ccc(-c3ccco3)cc21` [Example 2h, 3-(6-Furan-2-yl-1-methyl-1H-indol-3-yl)-4-(1-methyl-6-nitro-1H-indol-3-yl)pyrrole-2,5-dione], 0.01 µM.
With `Cc1nccn1-c1ccc2c(C3=C(c4cn(C)c5cc([N+](=O)[O-])ccc45)C(=O)NC3=O)cn(C)c2c1` [Example 8b, 3-[1-Methyl-6-(2-methyl-imidazol-1-yl)-1H-indol-3-yl]-4-(1-methyl-6-nitro-1H-indol-3-yl)-pyrrole-2,5-dione] the figure was 0.25 µM; with `Cn1cc(C2=C(c3cn(C)c4cc(-c5cccs5)ccc34)C(=O)NC2=O)c2ccccc21` [Example 3, 3-(1-Methyl-1H-indol-3-yl)-4-(1-methyl-6-thiophen-2-yl-1H-indol-3-yl)pyrrole-2,5 dione], 0.04 µM.
For `Cn1cc(C2=C(c3cn(C)c4cc([N+](=O)[O-])ccc34)C(=O)NC2=O)c2ccc(-c3ccns3)cc21` [Example 2m, 3-(6-Isothiazol-5-yl-1-methyl-1H-indol-3-yl)-4-(1-methyl-6-nitro-1H-indol-3-yl)pyrrole-2,5-dione], the IC50 is 0.01 µM.
As for `CCn1ccnc1-c1ccc2c(C3=C(c4cn(C)c5cc([N+](=O)[O-])ccc45)C(=O)NC3=O)cn(C)c2c1` [Example 2d], the figure is 0.12 µM; as for `Cn1cc(C2=C(c3cn(C)c4cc(-n5ccnc5)ccc34)C(=O)NC2=O)c2ccc(Br)cc21` [Example 10a, 3-(6-Bromo-1-methyl-1H-indol-3-yl)-4-(6-imidazol-1-yl-1-methyl-1H-indol-3-yl)-pyrrole-2,5-dione], 0.025 µM; as for `Cn1cc(C2=C(c3cn(C)c4cc(C(F)(F)F)ccc34)C(=O)NC2=O)c2ccc(N3CCOCC3)cc21` [Example 14e, 3-(1-Methyl-6-morpholin-4-yl-1H-indol-3-yl)-4-(1-methyl-6-trifluoromethyl-1H-indol-3-yl)pyrrole-2,5-dione], 0.05 µM.
As for `COCn1cc(C2=C(c3cn(C)c4cc(F)ccc34)C(=O)NC2=O)c2ccc(N3CCOCC3)cc21` [Example 12m, 3-(6-Fluoro-1-methyl-1H-indol-3-yl)-4-(1-methoxymethyl-6-morpholin-4-yl-1H-indol-3-yl)pyrrole-2,5-dione], the figure is 0.17 µM; as for `Cn1cc(C2=C(c3cn(C)c4cc(N5CCOCC5)ccc34)C(=O)NC2=O)c2ccc(Br)cc21` [Example 14d, 3-(6-Bromo-1-methyl-1H-indol-3-yl)-4-(1-methyl-6-morpholin-4-yl-1H-indol-3-yl)pyrrole-2,5-dione], 0.003 µM.
With `Cn1cc(C2=C(c3cn(C)c4cc([N+](=O)[O-])ccc34)C(=O)NC2=O)c2ccc(-c3cnc[nH]3)cc21` [Example 2f, 3-[6-(3H-Imidazol-4-yl)-1-methyl-1H-indol-3-yl]-4-(1-methyl-6-nitro-3-yl)pyrrole-2,5-dione hydrochloride] the figure was 0.02 µM; with `Cn1cc(C2=C(c3cn(C)c4cc(-n5ccnc5)ccc34)C(=O)NC2=O)c2ccccc21` [Example 7, 3-(6-imidazol-1-yl-1-methyl-1H-indol-3-yl)-4-(1-methyl-1H-indol-3-yl)-pyrrole-2,5-dione], 0.06 µM.
As to `Cn1cc(C2=C(c3c[nH]c4ccccc34)C(=O)NC2=O)c2ccc(N3CCCC3)cc21` [Example 12i, 3-(1H-indol-3-yl)-4-(1-methyl-6-pyrrolidin-1-yl-1H-indol-3-yl)-pyrrole-2,5-dione], the IC50 stood at 0.08 µM.
On to `Cn1cc(C2=C(c3cn(C)c4cc(N5CCOCC5)ccc34)C(=O)NC2=O)c2ccc(C#N)cc21` [Example 13, 1-Methyl-3-[4-(1-methyl-6-morpholin-4-yl-1H-indol-3-yl)-2,5-dioxo-2,5-dihydro-1H-pyrrole-3-yl]-1H-indole-6-carbonitrile], for which the IC50 came out at 0.004 µM.
